This experiment deals with T1, human TP receptor (Homo sapiens, UniProt P21731).
T1 sequence (P21731 1-343): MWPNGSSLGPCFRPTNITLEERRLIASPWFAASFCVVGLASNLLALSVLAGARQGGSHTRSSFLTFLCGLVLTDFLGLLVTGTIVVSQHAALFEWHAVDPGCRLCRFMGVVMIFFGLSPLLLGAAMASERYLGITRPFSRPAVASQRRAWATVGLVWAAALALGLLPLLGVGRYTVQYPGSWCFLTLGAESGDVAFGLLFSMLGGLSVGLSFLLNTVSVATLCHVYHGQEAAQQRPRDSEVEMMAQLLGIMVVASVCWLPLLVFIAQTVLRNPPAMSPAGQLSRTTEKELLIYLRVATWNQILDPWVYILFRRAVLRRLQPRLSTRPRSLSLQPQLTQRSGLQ
As to the kind of experiment: biochemical.
`O=c1c(O)c(NCc2cccc(CCNS(=O)(=O)c3ccc(Cl)cc3)c2)c1=O` [Compound 61]: the IC50 (usually the concentration needed to halve the response being measured) is 359 nM. In other words, the sub-micromolar range. Take `O=C1C=C(O)C(Cc2cccc(CCNS(=O)(=O)c3ccc(Cl)cc3)c2)C1` (stereo not drawn) [Compound 41, 4-Chloro-N-(3-((2-hydroxy-4-oxocyclopent-2-en-1-yl)methyl)phenethyl)benzenesulfonamide]: half-maximal inhibition (IC50) was put at 203 nM. In the case of `CC1=C(O)C(Cc2cccc(CCNS(=O)(=O)c3ccc(Cl)cc3)c2)CC1=O` (stereo not drawn) [Compound 42, 4-Chloro-N-(3-((2-hydroxy-3-methyl-4-oxocyclopent-2-en-1-yl)methyl)phenethyl)-benzenesulfonamide] it was 328 nM; in that of `O=S(=O)(NCCc1cccc(CCCO)c1)c1ccc(Cl)cc1` [Compound 59], > 10000 nM; in that of `O=C1CCC(O)=C1Cc1cccc(CCNS(=O)(=O)c2ccc(Cl)cc2)c1` [Compound 50, 4-Chloro-N-(3-((2-hydroxy-5-oxocyclopent-1-en-1-yl)methyl)phenethyl)benzenesulfonamide], 11400 nM. Next, `O=S(=O)(NCCc1cccc(CCc2nnn[nH]2)c1)c1ccc(Cl)cc1` [Compound 60]: 331 nM.

The values are drawn from patent US8530520B2, “Cycloalkyl-dione derivatives and methods of their use” (The Trustees Of The University Of Pennsylvania, priority 2011, dated 2013).
